Experimental data reported in PubChem BioAssay AID248 (DTP/NCI, 2004).
Several values for one entry are separate records, joined by “and”; a condition that tells them apart may be missing. Equal values may be shown once. Toxic doses and inconclusive results are not listed. Rule as the data show it: active = T/C of 150% or more; inactive = T/C below 125%.

System: L1210 leukemia ip in BDF1 mice, survival T/C
Test: NCI In Vivo Anticancer Drug Screen. Data for tumor model L1210 Leukemia (intraperitoneal) in B6D2F1 (BDF1) mice
Details: endpoint: mean survival time, higher = longer survival
Procedure, shortened: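 Antitumor effect is assessed in tumor-bearing animals. Survival in the compound arm is compared with a vehicle-dosed control arm and expressed as their quotient.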

[1] = dose: 25.0 mg/kg/injection, schedule: Q04DX003 (ip), vehicle: saline
[2] = dose: 100.0 mg/kg/injection, schedule: Q01DX001 (ip), vehicle: saline
[3] = dose: 200.0 mg/kg/injection, schedule: Q01DX001 (ip), vehicle: saline
[4] = dose: 400.0 mg/kg/injection, schedule: Q01DX001 (ip), vehicle: saline
[5] = dose: 100.0 mg/kg/injection, schedule: Q01DX001 (ip), vehicle: carboxymethylcellulose (CMC)
[6] = dose: 200.0 mg/kg/injection, schedule: Q01DX001 (ip), vehicle: carboxymethylcellulose (CMC)
[7] = dose: 400.0 mg/kg/injection, schedule: Q01DX001 (ip), vehicle: carboxymethylcellulose (CMC)
[8] = dose: 100.0 mg/kg/injection, schedule: Q04DX003 (ip), vehicle: saline
[9] = dose: 200.0 mg/kg/injection, schedule: Q04DX003 (ip), vehicle: saline
[10] = dose: 400.0 mg/kg/injection, schedule: Q04DX003 (ip), vehicle: saline
[11] = dose: 100.0 mg/kg/injection, schedule: Q01DX009 (ip), vehicle: Klucel (hydroxypropylcellulose) (HPC)
[12] = dose: 200.0 mg/kg/injection, schedule: Q01DX009 (ip), vehicle: Klucel (hydroxypropylcellulose) (HPC)
[13] = dose: 400.0 mg/kg/injection, schedule: Q01DX009 (ip), vehicle: Klucel (hydroxypropylcellulose) (HPC)
[14] = dose: 100.0 mg/kg/injection, schedule: Q01DX001 (ip), vehicle: other
[15] = dose: 100.0 mg/kg/injection, schedule: Q04DX003 (ip), vehicle: saline with Tween-80
[16] = dose: 200.0 mg/kg/injection, schedule: Q04DX003 (ip), vehicle: saline with Tween-80
[17] = dose: 400.0 mg/kg/injection, schedule: Q04DX003 (ip), vehicle: saline with Tween-80
[18] = dose: 100.0 mg/kg/injection, schedule: Q04DX002 (ip), vehicle: saline
[19] = dose: 200.0 mg/kg/injection, schedule: Q04DX002 (ip), vehicle: saline
[20] = dose: 50.0 mg/kg/injection, schedule: Q04DX002 (ip), vehicle: saline
[21] = dose: 400.0 mg/kg/injection, schedule: Q04DX002 (ip), vehicle: saline
[22] = dose: 200.0 mg/kg/injection, schedule: Q01DX009 (ip), vehicle: saline with Tween-80

Measured: T/C

CSc1ccc2c(c1)N(CCCN(C)C)c1ccccc1S2
inactive: dose: 0.78 mg/kg/injection, schedule: Q04DX003 (ip), vehicle: saline 98 % of control and 99 % of control | dose: 1.56 mg/kg/injection, schedule: Q04DX003 (ip), vehicle: saline 103 % of control and 107 % of control | dose: 3.12 mg/kg/injection, schedule: Q01DX009 (ip), vehicle: saline 103 % of control | dose: 3.12 mg/kg/injection, schedule: Q04DX003 (ip), vehicle: saline 98 % of control and 102 % of control | dose: 6.25 mg/kg/injection, schedule: Q01DX009 (ip), vehicle: saline 120 % of control | dose: 6.25 mg/kg/injection, schedule: Q04DX003 (ip), vehicle: saline 101 % of control and 107 % of control | dose: 12.5 mg/kg/injection, schedule: Q01DX009 (ip), vehicle: saline 122 % of control | dose: 12.5 mg/kg/injection, schedule: Q04DX003 (ip), vehicle: saline 104 % of control | [1] 109 % of control

C=CCOC(=O)Nc1ccc(S(=O)(=O)NC2CCCCC2)cc1
inactive: [2] 92 % of control | [3] 94 % of control | [4] 97 % of control

CC(=O)CCC(CCC(C)=O)(CCC(C)=O)[N+](=O)[O-]
inactive: [5] 104 % of control | [6] 104 % of control | [7] 98 % of control

CNc1ccc(/C=C2\C=Cc3ccccc32)cc1I
inactive: [5] 95 % of control | [6] 95 % of control | [7] 101 % of control

CCOC(=O)c1ccc(NC(=O)Nc2cc(Cl)ccc2OC)cc1
inactive: dose: 100.0 mg/kg/injection, schedule: Q01DX009 (ip), vehicle: saline 106 % of control | [8] 109 % of control | dose: 200.0 mg/kg/injection, schedule: Q01DX009 (ip), vehicle: saline 92 % of control | [9] 97 % of control | dose: 400.0 mg/kg/injection, schedule: Q01DX009 (ip), vehicle: saline 92 % of control | [10] 92 % of control

O=C(Nc1cccc(Cl)c1Cl)N(CCO)C1CCCCC1
inactive: [11] 107 % of control | [12] 96 % of control | [13] 94 % of control

COc1ccc(S(=O)(=O)NC(=O)NC(=O)C=C(C)C)cc1
inactive: dose: 50.0 mg/kg/injection, schedule: Q01DX009 (ip), vehicle: Klucel (hydroxypropylcellulose) (HPC) 98 % of control | [11] 104 % of control | dose: 100.0 mg/kg/injection, schedule: Q04DX003 (ip), vehicle: Klucel (hydroxypropylcellulose) (HPC) 102 % of control | [12] 96 % of control | dose: 200.0 mg/kg/injection, schedule: Q04DX003 (ip), vehicle: Klucel (hydroxypropylcellulose) (HPC) 98 % of control | dose: 400.0 mg/kg/injection, schedule: Q04DX003 (ip), vehicle: Klucel (hydroxypropylcellulose) (HPC) 101 % of control

Oc1ccc2ccnc(Cc3ccc(Br)cc3)c2c1
inactive: dose: 200.0 mg/kg/injection, schedule: Q01DX001 (ip), vehicle: Klucel (hydroxypropylcellulose) (HPC) 89 % of control | dose: 400.0 mg/kg/injection, schedule: Q01DX001 (ip), vehicle: Klucel (hydroxypropylcellulose) (HPC) 89 % of control

CCc1c(CBr)c(=O)[nH]c2ccccc12
inactive: [14] 96 % of control

COC(=O)CCNc1c(OC)ccc2ccccc12
inactive: [11] 101 % of control | [13] 98 % of control

FC(F)(F)C(Cl)Br (stereo unspecified)
inactive: [1] 106 % of control | dose: 50.0 mg/kg/injection, schedule: Q04DX003 (ip), vehicle: saline 104 % of control | [2] 101 % of control | [15] 98 % of control | [8] 97 % of control | dose: 150.0 mg/kg/injection, schedule: Q04DX003 (ip), vehicle: saline 98 % of control | [16] 97 % of control | dose: 225.0 mg/kg/injection, schedule: Q04DX003 (ip), vehicle: saline 101 % of control | dose: 335.0 mg/kg/injection, schedule: Q04DX003 (ip), vehicle: saline 96 % of control | [17] 106 % of control | dose: 1000.0 mg/kg/injection, schedule: Q05DX002 (ip), vehicle: water 97 % of control | dose: 2000.0 mg/kg/injection, schedule: Q05DX002 (ip), vehicle: water 108 % of control

CC(c1ccccc1)n1cncc1C(=O)N1CCOCC1 (stereo unspecified)
inactive: dose: 100.0 mg/kg/injection, schedule: Q04DX002 (ip), vehicle: Klucel (hydroxypropylcellulose) (HPC) 104 % of control | dose: 200.0 mg/kg/injection, schedule: Q04DX002 (ip), vehicle: Klucel (hydroxypropylcellulose) (HPC) 97 % of control | dose: 400.0 mg/kg/injection, schedule: Q04DX002 (ip), vehicle: Klucel (hydroxypropylcellulose) (HPC) 123 % of control

O=C(O)Cc1ccc2c(c1)C(=O)C(=O)N2
inactive: [8] 95 % of control | [9] 102 % of control | [10] 89 % of control

O=S(=O)(Cc1ccccc1)C(Cl)c1ccccc1 (stereo unspecified)
inactive: [2] 115 % of control | [3] 101 % of control | [4] 89 % of control

CNC(=O)Oc1ccc2c(C)cc(=O)oc2c1
inactive: [18] 94 % of control | [19] 105 % of control

COc1ccc2nc(/N=C(/N)N=C(N)N)sc2c1
inactive: dose: 75.0 mg/kg/injection, schedule: Q01DX001 (ip), vehicle: carboxymethylcellulose (CMC) 100 % of control | dose: 150.0 mg/kg/injection, schedule: Q01DX001 (ip), vehicle: carboxymethylcellulose (CMC) 97 % of control | dose: 300.0 mg/kg/injection, schedule: Q01DX001 (ip), vehicle: carboxymethylcellulose (CMC) 103 % of control

O=C(Nc1ccc(N(CCCl)CCCl)cc1)c1ccc([N+](=O)[O-])cc1
inactive: [20] 104 % of control | [18] 95 % of control | [19] 117 % of control | [21] 114 % of control

CNc1c(Cl)c(Cl)cc(Cl)c1Cl
inactive: dose: 100.0 mg/kg/injection, schedule: Q01DX009 (ip), vehicle: saline with Tween-80 104 % of control | [15] 95 % of control | [22] 110 % of control | [16] 114 % of control | [17] 93 % of control

CC(C)c1ccc(OS(=O)(=O)c2cccc([N+](=O)[O-])c2)cc1
inactive: [15] 100 % of control | [16] 100 % of control | [17] 98 % of control

Cc1cc(Cl)ccc1NC(=O)Oc1cc(C)c(Cl)c(C)c1Cl
inactive: dose: 25.0 mg/kg/injection, schedule: Q01DX009 (ip), vehicle: saline with Tween-80 100 % of control and 90 % of control | dose: 50.0 mg/kg/injection, schedule: Q01DX009 (ip), vehicle: saline with Tween-80 95 % of control and 103 % of control | dose: 100.0 mg/kg/injection, schedule: Q01DX001 (ip), vehicle: saline with Tween-80 94 % of control | [15] 93 % of control and 109 % of control | dose: 200.0 mg/kg/injection, schedule: Q01DX001 (ip), vehicle: saline with Tween-80 97 % of control | [22] 97 % of control and 105 % of control | [16] 97 % of control and 108 % of control | dose: 400.0 mg/kg/injection, schedule: Q01DX001 (ip), vehicle: saline with Tween-80 101 % of control | dose: 400.0 mg/kg/injection, schedule: Q01DX009 (ip), vehicle: saline with Tween-80 90 % of control | [17] 103 % of control and 113 % of control

CC(C)(c1ccc(O)cc1)c1ccc(O)cc1
inactive: [15] 96 % of control | [16] 87 % of control | [17] 91 % of control

c1cc2c(c(OCC3=NCCN3)c1)CCCC2
inactive: [18] 94 % of control

CCCCCCCCSC(=O)N(C(C)C)C(C)C
inactive: [20] 100 % of control | [18] 100 % of control and 105 % of control | [19] 100 % of control | [21] 108 % of control and 86 % of control

c1ccc(-c2cc3ccncc3c3ccccc23)cc1
inactive: dose: 100.0 mg/kg/injection, schedule: Q04DX003 (ip), vehicle: water 102 % of control | dose: 200.0 mg/kg/injection, schedule: Q04DX003 (ip), vehicle: water 96 % of control | dose: 400.0 mg/kg/injection, schedule: Q04DX003 (ip), vehicle: water 96 % of control

COc1cc(C)c(C(=O)c2ccccc2NS(=O)(=O)c2ccc(C)cc2)cc1OC
inactive: dose: 50.0 mg/kg/injection, schedule: Q01DX001 (ip), vehicle: other 98 % of control | [14] 95 % of control | dose: 200.0 mg/kg/injection, schedule: Q01DX001 (ip), vehicle: other 92 % of control | dose: 400.0 mg/kg/injection, schedule: Q01DX001 (ip), vehicle: other 104 % of control
